# Experimental data as given in patent US4217355A, “Amide therapeutic agents” (Pfizer Inc., priority 1978, dated 1980).
# What was measured:
# murine thymus cells = assay: lymphocyte stimulation assay (LSA), in vitro lymphocyte proliferation of murine thymus cells cultured in the presence of Concanavalin A; assay type: cell-based, male C57B1/6 mice; conditions: Con A present, 48 hours at 37° C.; for LSA Activity: in vitro, score at drug level with maximum activity
# Text: On the other hand, the activity of the compounds of the present invention, as immunoregulator agents, is based on a study of their ability to stimulate, in vitro, the lymphocyte proliferation of murine thymus cells cultured in the presence of Concanavalin A (Con A) by employing the general evaluation procedure of V. J. Merluzzi et al., as described in the Journal of Clinical and Experimental Immunology, Vol. 22, p. 486 (1975).
# 486 (1975). The cells were derived from male C57B1/6 mice of from 6-8 weeks age, purchased from the Jackson Laboratories of Bar Harbor, Maine and the Con A was obtained from Sigma Chemicals of St. Louis, Missouri. Each cell culture (consisting of 0.10 ml. thymus cells stock solution, 0.05 ml. of Con A stock solution and 0.05 ml. of drug solution) was performed in quadruplicate and cellular proliferation was measured, after 48 hours of incubation at 37° C., by pulsing each culture with ^3 H-thymidine (0.01 ml. of specific activity 1.9 C/mM, obtained from Schwarz-Mann, Inc. of Orangeburg, N.Y.) and then determining the incorporation of ^3 H-thymidine into cellular desoxyribonucleic acid (DNA) by an assessment of radioactivity using a liquid scintillation counter.
# [1] = tested on: carrageenin-induced edema in the hind paw; assay: carrageenin-induced rat food edema test (inhibition of edema formation in the hind paw); assay type: in vivo, male albino rats; conditions: rat, oral
# Description: A. Winter et al., Proc. Soc. Exp. Biol. Med., Vol. 111, p.
# A. Winter et al., as earlier reported in the Proceedings of the Society of Experimental Biology and Medicine, Vol. 111, p. 544 (1962). In this test, anti-inflammatory activity is determined as the percent inhibition of edema formation in the hind paw of male albino rats (weighing 150-190 g.) in response to a sub-plantar injection of carrageenin. The carrageenin is injected as a 1% aqueous suspension (0.05 ml.) one hour after oral administration of the drug, which is normally given in the form of an aqueous solution. Edema formation is then assessed three hours after the carrageenin injection by measuring the volume of the injected paw initially as well as at the three-hour mark. The increase in volume three hours after carrageenin injection constitutes the individual response.
# The following N-(2-thiazolyl)amides were tested for anti-inflammatory activity in rats, using the standard carrageen-ininduced rat food edema test, according to the procedure essentially described by C. A. Winter et al., as first reported in the Proceedings of the Society for Experimental Biology and Medicine, Vol. 111, p. 544 (1962). […]
# [2] = 33 mg./kg., three hours after carrageenin injection
SMILES,LSA Activity (murine thymus cells),further results
"O=C(CNCc1ccc2c(c1)OCO2)Nc1nccs1 [X=H, R1=H, R2=3,4-methylenedioxybenzyl, N-(2-thiazolyl)-α-(3,4-methylenedioxybenzylamino)acetamide]","++ (those equal to levamisole (22,000±900 cpm) were scored as ++)",
"Cc1csc(NC(=O)CNCCc2ccccc2)n1 [X=CH3, R1=H, R2=β-phenylethyl, N-(4-methyl-2-thiazolyl)-α-(β-phenylethylamino)acetamide]","+++ (those having an activity greater than levamisole (27,000±1,000 cpm) were scored as +++)",
"O=C(CNCc1ccco1)Nc1nccs1 [X=H, R1=H, R2=2-furfuryl, N-(2-thiazolyl)-α-(2-furfurylamino)acetamide]","++ (those equal to levamisole (22,000±900 cpm) were scored as ++)",
Cl.O=C(CNCc1ccccc1)Nc1nccs1 [N-(2-thiazolyl)-α-benzylaminoacetamide hydrochloride],,% Inhibition of edema formation (swelling) ([1]; 1.0 mg./kg.): 35%; % Inhibition of edema formation ([1]; 3.3 mg./kg.): 47%; % Inhibition of edema formation ([1]; 10 mg./kg.): 54%
"CCCCNCC(=O)Nc1nccs1 [X=H, R1=H, R2=n-butyl, N-(2-thiazolyl)-α-(n-butylamino)acetamide]","++ (those equal to levamisole (22,000±900 cpm) were scored as ++)",
"O=C(CNCc1cccs1)Nc1nccs1 [X=H, R1=H, R2=2-thenyl, N-(2-thiazolyl)-α-(2-thenylamino)acetamide]","+++ (those having an activity greater than levamisole (27,000±1,000 cpm) were scored as +++)",
"CCCNCC(=O)Nc1nccs1 [X=H, R1=H, R2=n-propyl, N-(2-thiazolyl)-α-(n-propylamino)acetamide]","++ (those equal to levamisole (22,000±900 cpm) were scored as ++)",
"c1ccc([C@H]2CN3CCSC3=N2)cc1 [levamisole, reference compound]",,"3H-thymidine incorporated (average counts per minute) (murine thymus cells; standard compound): 22,000±900 cpm"
"CC(N)C(=O)Nc1nccs1 (stereo not drawn) [X=H, R1=CH3, R2=hydrogen, N-(2-thiazolyl)-α-aminopropionamide]","+++ (those having an activity greater than levamisole (27,000±1,000 cpm) were scored as +++)",
"C=CCNCC(=O)Nc1nccs1 [X=H, R1=H, R2=allyl, N-(2-thiazolyl)-α-allylaminoacetamide]","++ (those equal to levamisole (22,000±900 cpm) were scored as ++)",
"CNCC(=O)Nc1nccs1 [X=H, R1=H, R2=methyl, N-(2-thiazolyl)-α-methylaminoacetamide]","+++ (those having an activity greater than levamisole (27,000±1,000 cpm) were scored as +++)","% Inhibition of edema formation [1, 2]: 54%"
"CNC(C)C(=O)Nc1nccs1 (stereo not drawn) [X=H, R1=CH3, R2=methyl, N-(2-thiazolyl)-α-methylaminopropionamide]","+++ (those having an activity greater than levamisole (27,000±1,000 cpm) were scored as +++)",
"CCNCC(=O)Nc1nccs1 [X=H, R1=H, R2=ethyl, N-(2-thiazolyl)-α-ethylaminoacetamide]","+++ (those having an activity greater than levamisole (27,000±1,000 cpm) were scored as +++)",
"CC(C)C(N)C(=O)Nc1nccs1 (stereo not drawn) [X=H, R1=iso-C3 H7, R2=hydrogen, N-(2-thiazolyl)-α-aminoisovaleramide]","++ (those equal to levamisole (22,000±900 cpm) were scored as ++)",
"O=C(Nc1nccs1)C1CCCCN1 (stereo not shown) [X=H, R=2-piperidyl, N-(2-thiazolyl)piperidine-2-carboxamide]","+++ (those having an activity greater than levamisole (27,000±1,000 cpm) were scored as +++)","% Inhibition of edema formation [1, 2]: 55%"
"O=C(CNC1CCCCCCC1)Nc1nccs1 [X=H, R1=H, R2=cyclooctyl, N-(2-thiazolyl)-α-cyclooctylaminoacetamide]","++ (those equal to levamisole (22,000±900 cpm) were scored as ++)",

SMILES,LSA Activity (murine thymus cells),further results
"Cc1csc(NC(=O)C(N)Cc2ccccc2)n1 (stereo not drawn) [X=CH3, R1=C6 H5 CH2, R2=hydrogen, N-(4-methyl-2-thiazolyl)-α-amino-β-phenylpropionamide]","+++ (those having an activity greater than levamisole (27,000±1,000 cpm) were scored as +++)",
"O=C(Nc1nccs1)C1CCCN1 (stereo not shown) [X=H, R=2-pyrrolidinyl, N-(2-thiazolyl)pyrrolidine-2-carboxamide]","+++ (those having an activity greater than levamisole (27,000±1,000 cpm) were scored as +++)","% Inhibition of edema formation [1, 2]: 48%"
"O=C(CNCc1ccc(F)cc1)Nc1nccs1 [X=H, R1=H, R2=p-fluorobenzyl, N-(2-thiazolyl)-α-(p-fluorobenzylamino)acetamide]","+++ (those having an activity greater than levamisole (27,000±1,000 cpm) were scored as +++)","% Inhibition of edema formation [1, 2]: 48%"
"O=C(CNCC1CCCCC1)Nc1nccs1 [X=H, R1=H, R2=cyclohexylmethyl, N-(2-thiazolyl)-α-cyclohexylmethylaminoacetamide]","++ (those equal to levamisole (22,000±900 cpm) were scored as ++)",
"O=C(CNCCc1ccccc1)Nc1nccs1 [X=H, R1=H, R2=β-phenylethyl, N-(2-thiazolyl)-α-(β-phenylethylamino)acetamide]","++ (those equal to levamisole (22,000±900 cpm) were scored as ++)","% Inhibition of edema formation [1, 2]: 53%"
"COc1ccc(CNCC(=O)Nc2nccs2)cc1 [X=H, R1=H, R2=p-methoxybenzyl, N-(2-thiazolyl)-α-(p-methoxybenzylamino)acetamide]","+++ (those having an activity greater than levamisole (27,000±1,000 cpm) were scored as +++)",
"CNCC(=O)Nc1nc(C)cs1 [X=CH3, R1=H, R2=methyl, N-(4-methyl-2-thiazolyl)-α-methylaminoacetamide]","+++ (those having an activity greater than levamisole (27,000±1,000 cpm) were scored as +++)","% Inhibition of edema formation [1, 2]: 53%"
"Cc1ccc(CNCC(=O)Nc2nccs2)cc1 [X=H, R1=H, R2=p-methylbenzyl, N-(2-thiazolyl)-α-(p-methylbenzylamino)acetamide]","+ (those superior to Con A activity but less than levamisole (10,000±700 cpm) were scored as +)",
"O=C(CNCc1ccc(C(F)(F)F)cc1)Nc1nccs1 [X=H, R1=H, R2=p-trifluoromethylbenzyl]","++ (those equal to levamisole (22,000±900 cpm) were scored as ++)",
"O=C(CNCC1CCCO1)Nc1nccs1 (stereo not drawn) [X=H, R1=H, R2=2-tetrahydrofurfuryl, N-(2-thiazolyl)-α-(2-tetrahydrofurfurylamino)acetamide]","++ (those equal to levamisole (22,000±900 cpm) were scored as ++)",
"Cc1csc(NC(=O)CNCc2ccccc2)n1 [X=CH3, R1=H, R2=benzyl, N-(4-methyl-2-thiazolyl)-α-benzylaminoacetamide]","+++ (those having an activity greater than levamisole (27,000±1,000 cpm) were scored as +++)",
"O=C(CNCc1ccc(Cl)cc1)Nc1nccs1 [X=H, R1=H, R2=p-chlorobenzyl, N-(2-thiazolyl)-α-(p-chlorobenzylamino)acetamide]","++ (those equal to levamisole (22,000±900 cpm) were scored as ++)",
"Cc1csc(NC(=O)C(N)C(C)C)n1 (stereo not drawn) [X=CH3, R1=iso-C3 H7, R2=hydrogen, N-(4-methyl-2-thiazolyl)-α-aminoisovaleramide]","+++ (those having an activity greater than levamisole (27,000±1,000 cpm) were scored as +++)",
"NCC(=O)Nc1nccs1 [X=H, R1=H, R2=hydrogen, N-(2-thiazolyl)-α-aminoacetamide]","++ (those equal to levamisole (22,000±900 cpm) were scored as ++)",
"Cc1csc(NC(=O)C(C)N)n1 (stereo not drawn) [X=CH3, R1=CH3, R2=hydrogen, N-(4-methyl-2-thiazolyl)-α-aminopropionamide]","+++ (those having an activity greater than levamisole (27,000±1,000 cpm) were scored as +++)",
"Cc1csc(NC(=O)C2CCCCN2)n1 (stereo not shown) [X=CH3, R=2-piperidyl, N-(4-methyl-2-thiazolyl)piperidine-2-carboxamide]","+++ (those having an activity greater than levamisole (27,000±1,000 cpm) were scored as +++)",
